Measurements reported in patent US9815794B2, “Inhibition of bacterial biofilms and microbial growth with imidazole derivatives” (North Carolina State University, priority 2011, dated 2017).
Values after ≈ are worked out from the molar mass of the structure shown. Where two headings read alike, the source gives them in different places.

Legend:
[1] = tested on: Rhodospirillum salexigens; test: Marine bacteria microdilution MIC; details: R. salexigens
VRE = test: Dispersion of pre-formed biofilms; type: cell-based, E. faecium (VRE); details: Enterococcus, read-out: EC50, 50% dispersion of a pre-formed biofilm
Description: (§1) The ability of 15 and 19 to disperse pre-formed biofilms was also determined for all of the aforementioned bacterial strains (both marine and terrestrial). To quantify this effect, the EC50 value of each compound against each bacterial strain was determined, where EC50 is defined as the concentration of compound that elicits 50% dispersion of a pre-formed biofilm. Both compounds are able to disperse pre-formed biofilms at low micromolar concentrations. These concentrations are also microbicidal to planktonic bacteria. […]
(§2) Preformed Biofilms: Dispersion assays were performed by taking an overnight culture of bacterial strain and subculturing it at an OD600 of 0.01 into the necessary medium (brain heart infusion for E. faecium, tryptic soy broth with a 0.5% glucose supplement (TSBG) for MRSA, S. aureus and S. epidermidis, Luria-Bertani (LB) medium for MDRAB and E. coli, and tryptic soy broth with a 0.5% glucose supplement and a 3.0% NaCl supplement (TGN) for R. salexigens, V. cholerae, V. vulnificus and L. anguillarum.) The resulting bacterial suspension was aliquoted (100 μL) into the wells of a 96-well PVC microtiter plate. […] Biofilm dispersion was quantitated by measuring the OD540 of each well in which a negative control lane wherein no biofilm was formed served as a background and was subtracted out.

[2] = tested on: difibrinated sheep's blood; test: Red blood cell hemolysis assay; type: cell-based
Description: Once the anti-biofilm and antibacterial properties of each 2-AI derivative had both been evaluated, the hemolytic potential of compounds 15, 19 and 1 was assessed (Liu et al., Antimicrob. Agents. Ch., 2007, 51: 597-603). […] Hemolysis was measured using difibrinated sheep's blood. Hemolytic potential was quantified by determining the HD50 of compound 15, 19 and 1, where HD50 is defined as the concentration that elicits 50% hemolysis. From this assay, we determined that the HD50 of compound 15, 19 and 1 were 66 μM, 61 μM and >400 μM. This corresponds to 22 and 21 μg/mL for compounds 15 and 19.
Red Blood Cell Hemolysis Assay.
Hemolysis assays were performed on mechanically difibrinated sheep blood (Hemostat Labs: DSB100). 1.5 mL of blood was placed into a microcentrifuge tube and centrifuged at 10000 rpm for ten minutes. The supernatant was removed and then the cells were resuspended with 1 mL of phosphate-buffered saline (PBS). The suspension was centrifuged, the supernatant was removed and cells resuspended two more times. The final cell suspension was then diluted tenfold. Test compound solutions were made in PBS and then added to aliquots of the tenfold suspension dilution. PBS alone was used as a negative control and as a zero hemolysis marker whereas a 1% Triton X sample was used as a positive control and the 100% lysis marker. Samples were then placed in an incubator at 37° C. while being shaken at 200 rpm for one hour. After one hour, the samples were transferred to microcentrifuge tubes and then centrifuged at 10000 rpm for ten minutes. The resulting supernatant was diluted by a factor of 40 in distilled water. The absorbance of the supernatant was measured with a UV spectrometer at a 540 nm wavelength.

L. anguillarum = test: Dispersion of pre-formed biofilms; type: cell-based, Listonella anguillarum; details: Vibrio anguillarum, read-out: EC50, 50% dispersion of a pre-formed biofilm
Description: as §1, §2

[3] = Dye dispersion assay from synthetic vesicles; details: 5 minutes
Description: Finally, given that active compounds are characterized by a polar head group and a lipophilic tail, it was probed whether compounds 15 and 19 were eliciting their activity via a pore forming mechanism. Compound 1 was used as a control. This was probed via a dye dispersion assay from synthetic vesicles (Liu et al., J. Am. Chem. Soc., 2001, 123, 7553-7559). Two types of vesicles were prepared, one containing 1-palmitoyl-2-oleoyl-sn-glycero-3-phosphocholine (POPC) and the other containing 1-palmitoyl-2-oleoyl-sn-glycero-3-phosphoglycerol (POPG). POPC mimics typical cell membranes encountered for mammalian red blood cells, while POPG mimics the negatively charged lipids encountered in bacterial membranes. In 5 minutes, at 25 μM, compounds 15 and 19 elicited 20% dye leakage from the POPG vesicles while they elicited 10% and 15% dye leakage from the POPC vesicles respectively. However, in 5 minutes at 500 μM, compounds 15 and 19 elicited 78% and 85% dye leakage from the POPG vesicles respectively. In 5 minutes at 25 μM, control compound 1 elicited 9% and 18% leak dye leakage from the POPC and POPG vesicles respectively, while in 5 minutes at 500 μM 1 elicited 15% and 50% leakage from the POPC and POPG vesicles. Given this differential response, and without wishing to be bound by theory, it is likely that compounds 15 and 19 are inducing microbicidal activity through a simple pore-forming mechanism.

| SMILES | MIC [1] | MIC ([1]; Rhodothalassium salexigens) | EC50 (VRE) | HD50 (concentration that elicits 50% hemolysis) [2] | HD50 (concentration that elicits 50% hemolysis) ([2]; converted from μM) | EC50 (L. anguillarum) | dye leakage ([3]; POPC vesicles, 25 μM) | dye leakage ([3]; POPG vesicles, 25 μM) | dye leakage ([3]; POPG vesicles, 500 μM) |
| --- | --- | --- | --- | --- | --- | --- | --- | --- | --- |
| CCCCCc1[nH]c(N)nc1CCCCCc1ccccc1 [Compound 15, 5-pentyl-4-(5-phenylpentyl)-1H-imidazol-2-amine] | 2.10 µg/mL (≈ 7.01 µM) | 2.1 µg/mL (≈ 7.01 µM) | 17.3 ± 2.3 µM | 66 µM | 22 µg/mL | 14.7 ± 1.7 µM | 10% | 20% | 78% |
| CCCCCCc1[nH]c(N)nc1CCCCCc1ccccc1 [Compound 19, 5-hexyl-4-(5-phenylpentyl)-1H-imidazol-2-amine] | 1.09 µg/mL (≈ 3.48 µM) | 1.1 µg/mL (≈ 3.51 µM) | 14.1 ± 0.2 µM | 61 µM | 21 µg/mL | 13.8 ± 1.5 µM | 15% | 20% | 85% |
